Laboratory results reported in patent US8575135B2 (Gilead Sciences, Inc., priority 2011, dated 2013).
Like-named read-outs stand apart in the source and are kept apart here.

Legend:
[1] = system: stable HCV 1a RLuc replicon cells (genotype 1a H77 replicon); test: microbe, parasite or virus in culture; format: cell-based; settings: Hepatitis C virus
[2] = IV and PO single dose pharmacokinetic studies in SD rats; format: in vivo; settings: male, Sprague-Dawley, rat, plasma, IV infusion 1 mg/kg vs oral gavage 2 mg/kg, read-out: Rat % F
Protocol: IV and PO Single Dose Pharmacokinetic Studies in SD Rats: The pharmacokinetics of selected compounds was characterized in male Sprague-Dawley (SD) rats (250-300g). […] The intravenous (IV) dosing vehicle was 5% ethanol, 35% polyethylene glycol 400 (PEG 400) and 60% water pH 2.0. […] Serial blood samples (approximately 0.3 mL each) were collected from jugular vein or other suitable vein at specified time points. […] The blood samples were collected into Vacutainer™ tubes containing EDTA-K3 as the anti-coagulant and were centrifuged at approximately 4° C. to obtain plasma. The plasma samples were stored at −20° C. until analysis by LC/MS/MS. A bioanalytical method utilizing high performance liquid chromatography coupled to tandem mass spectrometry (LC/MS/MS) was developed for analysis of the selected compound in rat plasma. Detection was performed using selected reaction monitoring (SRM); […] Standard curve and quality control samples were prepared in male rat plasma and processed in the same way as the test samples to generate quantitative data. Pharmacokinetic parameters were generated using non-compartmental pharmacokinetic analysis (Phoenix WinNonlin, version 6.3). Values below the lower limit of quantification (LLOQ) were assigned a value of zero if predose and treated as missing thereafter. Area under the curve (AUC) was calculated using the linear trapezoidal rule. The oral bioavailability (% F) was determined by comparison of the area under the curve (AUC) of the compound and/or a metabolite generated in plasma following oral administration to that generated following intravenous administration.

[3] = system: NS5A chimeric genotype 1b Con1 replicon with genotype 4a ED43 strain NS5A gene; test: microbe, parasite or virus in culture; format: cell-based, HCV; settings: Hepatitis C virus
[4] = system: 1a Pi-Rluc replicon with Q30R in genotype 1a NS5A; test: microbe, parasite or virus in culture; format: cell-based, HCV; settings: Hepatitis C virus
Procedure, shortened: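 Renilla luciferase replicon assay: 1a Pi-RLuc replicon carrying NS5A Q30R, transfected transiently into cured-51 (Huh-7-derived) cells.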

[5] = system: stable HCV 2a JFH-1 Rluc replicon cells (L31 present in NS5A); test: microbe, parasite or virus in culture; format: cell-based; settings: Hepatitis C virus
[6] = system: NS5A chimeric genotype 2a JFH-1 replicon with genotype 2b MD2b-1 strain NS5A gene (M31 present); test: microbe, parasite or virus in culture; format: cell-based, HCV; settings: Hepatitis C virus
Procedure, shortened: (§1)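 Con1 1b replicons carrying 3a S52 or 4a ED43 NS5A with Pi-RLuc reporter were transiently transfected into Huh-Lunet cells; 2b MD2b-1 NS5A (M31) in JFH-1 2a backbone with RLuc-Neo, transient or stable.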

[7] = system: NS5A chimeric genotype 1b Con1 replicon with genotype 3a S52 strain NS5A gene; test: microbe, parasite or virus in culture; format: cell-based, HCV; settings: Hepatitis C virus
Procedure, shortened: as §1

[8] = system: NS5A chimeric genotype 2a JFH-1 replicon with genotype 2a J6 strain NS5A gene (M31 present); test: microbe, parasite or virus in culture; format: cell-based, HCV; settings: Hepatitis C virus
[9] = system: stable HCV 1b RLuc replicon cells (genotype 1b Con1 replicon); test: microbe, parasite or virus in culture; format: cell-based; settings: Hepatitis C virus, read-out: 1b (nM)

Row | SMILES | EC50 ([1]; read-out: 1a) [nM] | EC50 ([1]; read-out: 1a (nM)) [nM] | bioavailability [2] [%] | EC50 ([3]; read-out: 4a) [nM] | EC50 ([3]; read-out: 4a (s) (nM)) [nM] | EC50 ([3]; read-out: 4a (t) (nM)) [nM] | EC50 ([4]; read-out: 1a Q30R) [nM] | EC50 ([4]; read-out: 1a Q30R (nM)) [nM] | EC50 ([5]; read-out: 2a JFH) [nM] | EC50 ([5]; read-out: 2a JFH (nM)) [nM] | EC50 ([6]; read-out: 2b) [nM] | EC50 ([6]; read-out: 2b (s) (nM)) [nM] | EC50 ([6]; read-out: 2b (t) (nM)) [nM] | EC50 ([7]; read-out: 3a) [nM] | EC50 ([7]; read-out: 3a (nM)) [nM] | EC50 ([8]; read-out: 2a J6) [nM] | EC50 ([8]; read-out: 2a J6 (s) (nM)) [nM] | EC50 ([8]; read-out: 2a Jb (t) (nM)) [nM] | EC50 [9] [nM]
1 | COC[C@H]1C[C@@H](c2nc3ccc4cc5c(cc4c3[nH]2)OCc2cc(-c3cnc([C@@H]4C[C@H](C)CN4C(=O)[C@H](NC(=O)OC)c4ccccc4)[nH]3)ccc2-5)N(C(=O)[C@@H](NC(=O)OC)C(C)C)C1 [Example PF, methyl {1-[2-{9-[2-(1-{[(methoxycarbonyl)amino](phenyl)acetyl}-4-methylpyrrolidin-2-yl)-1H-imidazol-5-yl]-1,11-dihydroisochromeno[4′,3′:6,7]naphtho[1,2-d]imidazol-2-yl}-4-(methoxymethyl)pyrrolidin-1-yl]-3-methyl-1-oxobutan-2-yl}carbamate] | < 1 | 0.032 | 4.3 | < 1 | 0.018 | 0.05 | < 1 | 0.034 | < 1 | 0.014 | < 1 | 0.117 | 0.023 | < 1 | 0.072 | < 1 | 0.127 | 0.025 | 
2 | COC[C@H]1C[C@@H](c2ncc(-c3ccc4c(c3)COc3cc5c(ccc6nc([C@@H]7CC[C@H](C)N7C(=O)[C@@H](NC(=O)OC)[C@@H](C)OC)[nH]c65)cc3-4)[nH]2)N(C(=O)[C@@H](NC(=O)OC)C(C)C)C1 [Example PI, methyl {(2S)-1-[(2S,4S)-2-(5-{2-[(2S,5S)-1-{(2S,3R)-3-methoxy-2-[(methoxycarbonyl)amino]butanoyl}-5-methylpyrrolidin-2-yl]-1,11-dihydroisochromeno[4′,3′:6,7]naphtho[1,2-d]imidazol-9-yl}-1H-imidazol-2-yl)-4-(methoxymethyl)pyrrolidin-1-yl]-3-methyl-1-oxobutan-2-yl}carbamate] | < 1 | 0.031 | 8.7 |  |  |  | < 1 | 0.094 | < 1 | 0.02 | < 1 |  | 0.09 | < 1 | 0.065 | < 1 |  | 0.129 | 0.039
3 | COC[C@H]1C[C@@H](c2ncc(-c3ccc4c(c3)COc3cc5c(ccc6nc([C@@H]7CC[C@H](C)N7C(=O)[C@@H](NC(=O)OC)C(C)C)[nH]c65)cc3-4)[nH]2)N(C(=O)[C@H](NC(=O)OC)c2ccccc2)C1 [Example PY, Methyl {(2S)-1-[(2S,5S)-2-(9-{2-[(2S,4S)-1-{(2R)-2-[(methoxycarbonyl)amino]-2-phenylacetyl}-4-(methoxymethyl)pyrrolidin-2-yl]-1H-imidazol-5-yl}-1,11-dihydroisochromeno[4′,3′:6,7]naphtho[1,2-d]imidazol-2-yl)-5-methylpyrrolidin-1-yl]-3-methyl-1-oxobutan-2-yl}carbamate] | < 1 | 0.012 | 27.7 | < 1 | 0.018 |  | < 1 | 0.013 | < 1 | 0.006 | < 1 | 0.03 | 0.007 | < 1 | 0.017 | < 1 | 0.098 | 0.009 | 
4 | COC[C@H]1C[C@@H](c2ncc(-c3ccc4c(c3)COc3cc5c(ccc6nc([C@@H]7CC[C@H](C)N7C(=O)[C@@H](NC(=O)OC)C(C)C)[nH]c65)cc3-4)[nH]2)N(C(=O)[C@@H](NC(=O)OC)[C@H](C)OC)C1 [Example QA, Methyl {(2S)-1-[(2S,5S)-2-(9-{2-[(2S,4S)-1-{(2S,3S)-3-methoxy-2-[(methoxycarbonyl)amino]butanoyl}-4-(methoxymethyl)pyrrolidin-2-yl]-1H-imidazol-5-yl}-1,11-dihydroisochromeno[4′,3′:6,7]naphtho[1,2-d]imidazol-2-yl)-5-methylpyrrolidin-1-yl]-3-methyl-1-oxobutan-2-yl}carbamate] | < 1 | 0.012 | 7.46 |  |  |  | < 1 | 0.045 | < 1 | 0.007 | < 1 | 0.04 | 0.052 | < 1 | 0.038 | < 1 |  | 0.094 | 0.013
